According to US20260209263A1, “UNNATURAL SUGAR, AND SYNTHESIS METHOD THEREFOR AND USE THEREOF” (HEFEI LINXCELL BIOTECHNOLOGIES CO., LTD, priority 2022, published 2026):

Legend:
HeLa cells = assay: Metabolic glycan labeling in living HeLa cells, Cy5 in-gel fluorescence; format: cell-based; conditions: for labeling efficiency compared with 1,6-Pr2GalNAz or 1,6-Pr2ManNAz: 200 μM; for labeling efficiency compared with GalNAz or ManNAz: 200 μM of 1,6-bis-acylated sugar vs 2 mM of sugar without protecting groups
Method: In order to verify the metabolic labeling effect of the above-mentioned 1,6-bis-acylated unnatural sugars in living cells, HeLa cells were metabolically labeled with the above-mentioned different compounds. The specific steps are as follows:
200 μM of 1,6-bis-acylated unnatural sugar and 2 mM of sugar without protecting groups were added to a culture medium of HeLa cells for culture, and then bioorthogonal reaction was carried out with Cy5 fluorescently labeled substances, and in-gel fluorescence detection was performed on the differently treated HeLa cells. The detection results are shown in FIGS. 2A-2C (CBB in FIGS. 3A-3D represents Coomassie Brilliant Blue staining to show the loading amount control).

B6D2F1/J mice = assay: Metabolic labeling in vivo in mice, in-gel fluorescence of organ homogenates; conditions: intraperitoneal, 500 mg/kg every day for 3 or 7 consecutive days; heart, lung, spleen
Method: In the in vivo mouse experiment, B6D2F1/J mice were intraperitoneally injected with 1,6-Pr2GalNAz or 1,6-Pr2ManNAz (both at a concentration of 500 mg/kg) every day for 3 or 7 consecutive days. The mice were euthanized on the 4th or 8th day, and different organs were selected for homogenization. The azide-modified glycoproteins were click-labeled and separated by SDS-PAGE.

[1] = test system: MCF-7 (MCF7-T2A-GFP) cells; assay: Metabolic glycan labeling in MCF-7 cells expressing GFP; format: cell-based
From the text: (§1) The above data well illustrate that 1,6-bis-acylated azidosugars can be metabolically labeled at much lower concentrations than unprotected azidosugars.

[2] = test system: MCF7-AGX2F383G-T2A-GFP cells; assay: Metabolic glycan labeling in MCF-7 cells overexpressing mutant enzyme AGX2F383G; format: cell-based
From the text: as §1

In the case of `CC(=O)OCC1OC(OC(C)=O)C(NC(=O)CN=[N+]=[N-])C(O)C1O` (centres unmarked) [1,6-Ac2GalNAz], the “labeling efficiency compared with 1,6-Pr2GalNAz or 1,6-Pr2ManNAz” value (HeLa cells) is reported as “much lower”.
With `CCCC(=O)OCC1OC(OC(=O)CCC)C(NC(=O)CN=[N+]=[N-])C(O)C1O` (centres unmarked) [1,6-Bu2GalNAz] the “labeling efficiency compared with 1,6-Pr2GalNAz or 1,6-Pr2ManNAz” value (HeLa cells) was “comparable”.
With `CCC(=O)OC[C@H]1OC(OC(=O)CC)[C@H](NC(=O)CN=[N+]=[N-])[C@@H](O)[C@H]1O` (some centres unmarked) [1,6-Pr2GalNAz] the “labeling efficiency compared with GalNAz or ManNAz” value (HeLa cells) was “close to or slightly stronger than 2 mM of sugar without protecting groups” and the “in vivo metabolic labeling of glycoproteins from organs” value (B6D2F1/J mice) was “glycoproteins from the heart, lung, and spleen could be well labeled”.
In the case of `CCC(=O)OCC1OC(OC(=O)CC)C(NC(=O)CN=[N+]=[N-])C(O)C1O` (centres unmarked) [1,6-Pr2ManNAz], the “labeling efficiency compared with GalNAz or ManNAz” value (HeLa cells) is reported as “close to or slightly stronger than 2 mM of sugar without protecting groups” and the “in vivo metabolic labeling of glycoproteins from organs” value (B6D2F1/J mice) is reported as “glycoproteins from the heart, lung, and spleen could be well labeled”.
`[N-]=[N+]=NCC(=O)N[C@H]1C(O)O[C@H](CO)[C@@H](O)[C@@H]1O` (some centres unmarked) [GlcNAz] was tested, and the metabolic labeling [1] was “neither GlcNAz nor 1,6-bis-acylated GlcNAz treatment resulted in obvious labeling” and the metabolic labeling [2] was “produced obvious labeling”.
